For series [1], the system named is regulatory T cells (Treg). Description: Regulatory T cell (Treg) expression in rheumatoid arthritis disease model with metabolic syndrome. The class given is cell-based. On the procedure:
(§1) Further, in order to examine whether the biguanide derivative compound of the present invention activates the expression of regulatory T cells (Treg), the incubated cells were flow-cytometry by using anti-CD4-percp, anti-CD25-APC, and anti Foxp3-Pe fluorescent antibodies (ab), and as a result, it was verified that SD-196, 216 and 217 activated the Foxp3+ Treg cells (see FIG. 10).
(§2) Further, the incubated cells were analyzed by flow cytometry using anti-CD4-percp and anti-IL-17-Pe fluorescent antibodies, and as a result, it was verified that SD-196, 216 and 217 suppressed the activity of Th17 and simultaneously activated the expression of the regulatory T cells (Treg) (see FIG. 13).

Another series has as its system TNF-α. In words: TNF-α expression in lupus animal model. It counts as cell-based. The protocol: (§3) In order to evaluate an effect of suppressing the expression of the inflammatory cytokine of the biguanide derivative compound of the present invention, the incubated supernatant was collected and the expression degrees of IL-17 and TNF-α of a mouse were examined by using a sandwich ELISA. […] of a monoclonal anti-IL-17 or anti-TNF-α was reacted in a 96-well plate at 4° C. overnight and then a non-specific binding was blocked by a blocking solution (1% BSA/PBST) after the reaction. An IL-17 or TNF-α recombinant was continuously diluted by 1/2 to be used as a standard, added with the cell-incubated supernatant, and reacted at room temperature for 2 hrs. Thereafter, biotinylated anti-IL-17 or anti-TNF-α was added and reacted at room temperature for 2 hrs, washed four times after the reaction, diluted with a diluted ExtraAvidin-alkaline phosphatase conjugate, and reacted at room temperature for 2 hrs. After the reaction, a PNPP/DEA was added and colored, and absorbance was measured at a wavelength of 405 nm.
(§4) In order to evaluate a lupus therapeutic effect of the biguanide derivative compound of the present invention, in a lupus animal model, cytotoxicity, autoantibody generation, generation of inflammatory cytokines, and Th17 regulation were measured by the same method as Example 8.

The test system of series [2] is IL-17. Description: IL-17 expression in lupus animal model. The class given is cell-based. On the procedure:
as §3, §4

For series [3], the system named is cells isolated from the spleen. Description: Cytotoxicity MTT assay, Example 8-1 (rheumatoid arthritis evaluation). It counts as cell-based. The note with it: mouse spleen cells, anti-CD3 0.5 μg/ml or LPS 100 ng/ml, 3 days. The protocol:
In order to evaluate an arthritis therapeutic effect of the biguanide derivative compound of the present invention, in a rheumatoid arthritis animal model, cytotoxicity, generation of autoantibody, expression of inflammatory cytokines and regulatory T cells (Treg), and osteoclast differentiation were measured. Like Examples, metformin was used as a control group. In order to examine cytotoxicity of the biguanide derivative compound of the present invention, an MTT assay was performed. Cells were isolated from the spleen in a normal mouse group and the isolated cells were incubated for 3 days in the concentration of 0.5 μg/ml of anti-CD3 or 100 ng/ml of LPS 100, and metformin, SD-196, SD-216 or SD-217 was treated for each concentration and incubated for 3 days.
Background: Formazan colour is commonly taken as a measure of viable cells.

Series [4] in a line: Cytotoxicity (MTT) in lupus animal model. The class given is cell-based. On the procedure:
In order to examine cytotoxicity of the biguanide derivative compound of the present invention, an MTT assay was performed. Cells were isolated from the spleen in a normal mouse group and the isolated cells were incubated for 3 days in the concentration of 0.5 μg/ml of anti-CD3 or 100 ng/ml of LPS 100, and metformin, SD-196, SD-216 or SD-217 was treated for each concentration and incubated for 3 days. […] In order to evaluate a lupus therapeutic effect of the biguanide derivative compound of the present invention, in a lupus animal model, cytotoxicity, autoantibody generation, generation of inflammatory cytokines, and Th17 regulation were measured by the same method as Example 8.

A further series deals with Foxp3+ Treg cells. In words: Regulatory T cell (Treg) expression by flow cytometry, Example 8-3. It counts as cell-based, mouse. The note with it: anti-CD4, anti-CD25, anti Foxp3. The protocol: as §1, with “In order to evaluate an arthritis therapeutic effect of the biguanide derivative compound of the present invention, in a rheumatoid arthritis animal model, cytotoxicity, generation of autoantibody, expression of inflammatory cytokines and regulatory T cells (Treg), and osteoclast differentiation were measured. Like Examples, metformin was used as a control group. Further,” for “Further,”

Another series concerns osteoclast. Description: Osteoclast differentiation, TRAP staining. It counts as cell-based, mouse. The settings on record: bone marrow of arthritis animal model, MCSF 10 ng/ml and RANKL 50 ng/ml. The protocol: In order to verify whether the biguanide derivative compound of the present invention suppresses the osteoclast differentiation, while a bone marrow extracted from a leg in an arthritis animal model was treated with MCSF (10 ng/ml) and RANKL (50 ng/ml) to differentiate the osteoclast, metformin, SD-196, SD-216, and SD-217 were treated, respectively, and the differentiation degrees of the osteoclast were evaluated. The evaluation was performed by using TRAP straining.

Series [5] can be described thus: Cytotoxicity (MTT) in rheumatoid arthritis disease model with metabolic syndrome. It counts as cell-based. The protocol: In order to examine cytotoxicity of the biguanide derivative compound of the present invention, an MTT assay was performed. Cells were isolated from the spleen in a normal mouse group and the isolated cells were incubated for 3 days in the concentration of 0.5 μg/ml of anti-CD3 or 100 ng/ml of LPS 100, and metformin, SD-196, SD-216 or SD-217 was treated for each concentration and incubated for 3 days.
as §2

Another series deals with Th17. In words: Th17 activity by flow cytometry in rheumatoid arthritis disease model with metabolic syndrome. It counts as cell-based. The note with it: flow cytometry anti-CD4, anti-IL-17. The protocol: as §2
The test system of series [6] is IL-17. Description: IL-17 expression in rheumatoid arthritis disease model with metabolic syndrome. The class given is cell-based. The protocol:
as §3, §2

As for `CC(C)NC(=N)NC(=N)N` [SD-000196, 1-isopropylbiguanide], in series [1], the “expression of the regulatory T cells (Treg)” value (shortened to “expression … (Treg)”) is recorded as “activated”. Further, the “expression of TNF-α” value in the series on TNF-α was “suppressed”. Moreover, the “expression of IL-17” value with IL-17 [2] and in the series with IL-17 [6] was “suppressed” each time. The “cytotoxicity (MTT assay)” value in series [3] is reported as “no cytotoxicity”. In addition, the cytotoxicity result is reported as “no cytotoxicity” in [4] and “did not have the cytotoxicity” in [5]. In the series on Foxp3+ Treg cells, the “Foxp3+ Treg cells” value is reported as “activated”. The “differentiation of the osteoclast” value with osteoclast is on record as “significantly suppress”. For the same compound, in the series on Th17, the “activity of Th17” value is “suppressed”.
Consider `N=C(N)NC(=N)Nc1ccc(F)cc1F` [SD-000217, 1-(2,4-difluorophenyl)biguanide], for which the “expression … (Treg)” value in series [1] is “activated”. Besides, the “expression of TNF-α” value in the series with TNF-α is on record as “suppressed”. The “expression of IL-17” value with IL-17 [2] and in the series on IL-17 [6] was “suppressed” each time. The “cytotoxicity (MTT assay)” value in [3] is “no cytotoxicity”. For the same compound, the cytotoxicity entry in series [4] is “no cytotoxicity”; in series [5], “did not have the cytotoxicity”. Besides, the “Foxp3+ Treg cells” value in the series with Foxp3+ Treg cells is given as “activated”. Besides, the “differentiation of the osteoclast” value in the series on osteoclast is “significantly suppress”. In the series on Th17, the “activity of Th17” value is “suppressed”.
For the compound `NC(N)=N/C(N)=N/c1cccc(F)c1` [SD-000216, 1-(3-fluorophenyl)biguanide], in series [1], the “expression … (Treg)” value is “activated”. In the series on TNF-α, the “expression of TNF-α” value is recorded as “suppressed”. Also, the “expression of IL-17” value in the series with IL-17 [2] and with IL-17 [6] was “suppressed” throughout. In series [3], the “cytotoxicity (MTT assay)” value is “no cytotoxicity”. The cytotoxicity entry is “no cytotoxicity” in [4] and “did not have the cytotoxicity” in [5]. Besides, the “Foxp3+ Treg cells” value in the series with Foxp3+ Treg cells was “activated”. The “differentiation of the osteoclast” value in the series on osteoclast is recorded as “significantly suppress”. Also, the “activity of Th17” value with Th17 is “suppressed”.
